Reference: US20090105476A1, “Organic Compounds” (Novartis AG, priority 2006, published 2009)
Structures can show the parent of a compound that is named as a salt.

The molecules below were run against adenosine A2A receptor (Homo sapiens, UniProt P29274) (assay: A2A receptor agonist assay by the method of L. J. Murphree et al, Molecular Pharmacology 61, 455-462 (2002)). Conditions: Mol. Pharmacol. 61, 455-462 (2002).
adenosine A2A receptor, sequence (P29274 whole entry): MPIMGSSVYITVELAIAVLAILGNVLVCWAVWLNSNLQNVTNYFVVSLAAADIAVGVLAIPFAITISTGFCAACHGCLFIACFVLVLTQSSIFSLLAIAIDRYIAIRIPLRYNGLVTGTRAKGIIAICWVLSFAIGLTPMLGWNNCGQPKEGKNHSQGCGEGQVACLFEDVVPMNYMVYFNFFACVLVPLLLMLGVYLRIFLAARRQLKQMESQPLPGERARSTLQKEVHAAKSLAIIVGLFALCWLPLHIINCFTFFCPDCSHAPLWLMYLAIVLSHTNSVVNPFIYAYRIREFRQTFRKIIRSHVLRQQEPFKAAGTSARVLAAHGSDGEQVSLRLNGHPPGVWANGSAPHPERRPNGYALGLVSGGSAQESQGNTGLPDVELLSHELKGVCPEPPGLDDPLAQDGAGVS
Assay type: binding
Description: Compounds of formula I and their pharmaceutically acceptable salts are useful as pharmaceuticals. In particular, they activate the adenosine A2A receptor, i.e. they act as A2A receptor agonists.
With `CS(=O)(=O)N[C@H]1C[C@@H](n2cnc3c(N)nc(Cl)nc32)[C@H](O)[C@@H]1O` [Example 1, N-[(1S,2R,3S,4R)-4-(6-Amino-2-chloropurin-9-yl)-2,3-dihydroxy-cyclopentyl]-methane-sulfonamide Trifluoroacetate] the Ki was 582 nM. In the case of `CCC(=O)N[C@H]1C[C@@H](n2cnc3c(N)nc(NCCc4ccccc4)nc32)[C@H](O)[C@@H]1O` [Example 2, N-[(1S,2R,3S,4R)-4-(6-Amino-2-phenethlamino-purin-9-yl)-2,3-dihydroxy-cyclopentyl]-propionamide trifluoroacetate], the Ki is reported as 18 nM. With `CCC(=O)N[C@H]1C[C@@H](n2cnc3c(NCC(c4ccccc4)c4ccccc4)nc(Cl)nc32)[C@H](O)[C@@H]1O` [Example 4, N-{(1S,2R,3S,4R)-4-[2-chloro-6-(2,2-diphenyl-ethylamino)purin-9-yl]-2,3-dihydroxy-cyclopentyl}-propionamide] the Ki was 57 nM. For `CCCCC#Cc1nc(NCC(c2ccccc2)c2ccccc2)c2ncn(C3CC(NC(=O)CC)C(O)C3O)c2n1` [Example 6, N-{(1S,2R,3S,4R)-4-[6-(2,2-Diphenyl-ethylamino-2-hex-1-ynyl-purin-9-yl]-2,3-dihydroxy-cyclopentyl}-propionamide], the Ki was 8 nM. `O=C(N[C@H]1C[C@@H](n2cnc3c(NCC(c4ccccc4)c4ccccc4)nc(Cl)nc32)[C@H](O)[C@@H]1O)C1CC1` [Example 12, Cyclopropanecarboxylic acid {(1S,2R,3S,4R)-4-[2-chloro-6-(2,2-diphenyl-ethylamino)-purin-9-yl]-2,3-dihydroxy-cyclopentyl}-amide] was tested, and the Ki was 3 nM. `CCC(=O)N[C@H]1C[C@@H](n2cnc3c(NC(CC)CC)nc(Cl)nc32)[C@H](O)[C@@H]1O` [Example 14, N-{(1S,2R,3S,4R)-4-[2-chloro-6-(1-ethyl-propylamino)-purin-9-yl]-2,3-dihydroxy-cyclopentyl}-propionamide] gave a Ki of 690 nM. `CCC(=O)N[C@H]1C[C@@H](n2cnc3c(NC(CC)CC)nc(NC4CCC(N)CC4)nc32)[C@H](O)[C@@H]1O` (stereo partly drawn) [Example 20, N-{(1S,2R,3 S,4R)-4-[2-(4-Amino-cyclohexylamino)-6-(1-ethyl-propylamino)-purin-9-yl]-2,3-dihydroxy-cyclopentyl}-propionamide] gave a Ki of 8 nM. With `CCC(=O)N[C@H]1C[C@@H](n2cnc3c(NCC(c4ccccc4)c4ccccc4)nc(N4CC[C@@H](NC(=O)N[C@@H]5CCNC5)C4)nc32)[C@H](O)[C@@H]1O` [Example 39, N-((1S,2R,3S,4R)-4-4-{6-(2,2-Diphenyl-ethylamino)-2-[(R)-3-((R)-3-pyrrolidin-3-yl)ureido)-pyrrolidin-1-yl]-purin-9-yl}-2,3-dihydroxy-cyclopentyl)-propionamide Trifluoroacetate] the Ki was 3 nM. With `CC(=O)N[C@H]1C[C@@H](n2cnc3c(NCC(c4ccccc4)c4ccccc4)nc(C(=O)NCCNC(=O)NC4CCN(c5ccccn5)CC4)nc32)[C@H](O)[C@@H]1O` [Example 42, 9-((1R,2S,3R,4S)-4-acetylamino-2,3-dihydroxy-cyclopentyl)-6-(2,2-diphenyl-ethylamino)-9H-purine-2-carboxylic acid {2-[3-(3,4,5,6-tetra-hydro-2H-[1,2′]bipyridinyl-4-yl)-ureido]-ethyl}-amide trifluoroacetate] the Ki was 2 nM. Molecule `CCC(=O)N[C@H]1C[C@@H](n2cnc3c(NCc4cccc5ccccc45)nc(N4CC[C@@H](NC(=O)N[C@@H]5CCNC5)C4)nc32)[C@H](O)[C@@H]1O` [Example 55, N-((1S,2R,3S,4R)-2,3-Dihydroxy-4-{6-[(naphthalen-1-ylmethyl)-amino]-2-[(R)-3-((R)-3-pyrrolidin-3-ylureido)-pyrrolidin-1-yl]-purin-9-yl}-cyclopentyl)-propionamide Trifluoroacetate] has a Ki of 4 nM. `CCC(=O)N[C@H]1C[C@@H](n2cnc3c(NCCC(c4ccccc4)c4ccccc4)nc(NCCc4cn(CC)cn4)nc32)[C@H](O)[C@@H]1O` [Example 61, N-{(1S,2R,3S,4R)-4-(6-(3,3-diphenyl-propyl-amino)-2-[2-(1-ethyl-1H-imidazol-4-yl)-ethylamino]-purin-9-yl}-2,3-dihydroxy-cyclopentyl)-propionamide trifluoroacetate] was tested, and the Ki was 9 nM.
